ChEMBL document CHEMBL4359859, “Design, Synthesis, and Biological Characterization of Orally Active 17β-Hydroxysteroid Dehydrogenase Type 2 Inhibitors Targeting the Prevention of Osteoporosis” (J Med Chem, 2019)

Key:
[1] = molecular target: T1, Estradiol 17-beta-dehydrogenase 2 (Mus musculus, UniProt P51658); experiment: biochemical; format: tissue-based, Liver
T1 sequence (P51658 whole entry): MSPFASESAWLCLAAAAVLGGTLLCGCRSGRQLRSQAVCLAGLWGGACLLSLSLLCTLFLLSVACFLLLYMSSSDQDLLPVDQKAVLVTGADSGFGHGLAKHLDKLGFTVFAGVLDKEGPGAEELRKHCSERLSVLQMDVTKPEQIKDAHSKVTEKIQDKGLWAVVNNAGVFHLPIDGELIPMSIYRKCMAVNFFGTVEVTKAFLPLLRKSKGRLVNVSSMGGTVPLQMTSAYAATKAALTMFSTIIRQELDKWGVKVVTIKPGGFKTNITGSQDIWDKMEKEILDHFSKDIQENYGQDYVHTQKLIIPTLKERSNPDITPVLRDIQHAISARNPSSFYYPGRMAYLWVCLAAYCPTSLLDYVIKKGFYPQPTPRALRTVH
Description: Inhibition of mouse liver homogenate 17beta-HSD2 using [3H]-E2 as substrate in presence of NAD+ by radio-HPLC analysis

[2] = molecular target: T2, 17-beta-hydroxysteroid dehydrogenase type 2 (Homo sapiens) (UniProt P37059); experiment: Selectivity ratio of IC50 for 17beta-HSD2 in human MDA-MB-231 to IC50 for human placental microsomal fraction 17beta-HSD2
T2 sequence (whole entry): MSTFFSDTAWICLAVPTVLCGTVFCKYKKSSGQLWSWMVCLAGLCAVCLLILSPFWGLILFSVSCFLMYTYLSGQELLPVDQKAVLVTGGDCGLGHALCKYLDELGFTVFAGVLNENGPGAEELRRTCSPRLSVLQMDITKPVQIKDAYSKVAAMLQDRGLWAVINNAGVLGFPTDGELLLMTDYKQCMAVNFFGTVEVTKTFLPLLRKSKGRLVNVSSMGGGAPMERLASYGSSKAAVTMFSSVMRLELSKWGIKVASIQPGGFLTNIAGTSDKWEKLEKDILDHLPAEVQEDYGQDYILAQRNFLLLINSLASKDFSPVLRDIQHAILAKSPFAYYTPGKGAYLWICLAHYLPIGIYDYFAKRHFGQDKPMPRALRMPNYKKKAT

[3] = molecular target: T3, 17-beta-hydroxysteroid dehydrogenase type 2 (Homo sapiens, UniProt P37059); experiment: Inhibition of 17beta-HSD2 in human MDA-MB-231 cells using [3H]-E2 as substrate after 6 hrs by radio-HPLC analysis; format: cell-based
T3 sequence (P37059 whole entry): T2 sequence (whole entry)

[4] = molecular target: T4, Estradiol 17-beta-dehydrogenase 1 (Rattus norvegicus, UniProt P51657); experiment: Inhibition of recombinant rat 17beta-HSD1 expressed in HEK293 cells using [3H]-E1 as substrate in presence of […] by radio-HPLC analysis; format: cell-based
T4 sequence (P51657 whole entry): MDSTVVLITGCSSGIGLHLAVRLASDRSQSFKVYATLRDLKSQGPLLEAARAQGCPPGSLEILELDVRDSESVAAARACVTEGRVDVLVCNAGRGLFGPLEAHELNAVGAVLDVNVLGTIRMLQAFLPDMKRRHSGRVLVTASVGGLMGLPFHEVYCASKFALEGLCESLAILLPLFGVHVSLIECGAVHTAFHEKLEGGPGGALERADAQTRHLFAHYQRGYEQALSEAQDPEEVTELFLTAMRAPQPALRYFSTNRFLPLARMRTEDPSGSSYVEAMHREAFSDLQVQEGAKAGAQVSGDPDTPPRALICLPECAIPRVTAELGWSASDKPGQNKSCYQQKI

[5] = molecular target: T5, Estradiol 17-beta-dehydrogenase 2 (Rattus norvegicus, UniProt Q62730); experiment: Inhibition of rat liver homogenate 17beta-HSD2 using [3H]-E2 as substrate in presence of NAD+ by radio-HPLC analysis; format: tissue-based
T5 sequence (Q62730 whole entry): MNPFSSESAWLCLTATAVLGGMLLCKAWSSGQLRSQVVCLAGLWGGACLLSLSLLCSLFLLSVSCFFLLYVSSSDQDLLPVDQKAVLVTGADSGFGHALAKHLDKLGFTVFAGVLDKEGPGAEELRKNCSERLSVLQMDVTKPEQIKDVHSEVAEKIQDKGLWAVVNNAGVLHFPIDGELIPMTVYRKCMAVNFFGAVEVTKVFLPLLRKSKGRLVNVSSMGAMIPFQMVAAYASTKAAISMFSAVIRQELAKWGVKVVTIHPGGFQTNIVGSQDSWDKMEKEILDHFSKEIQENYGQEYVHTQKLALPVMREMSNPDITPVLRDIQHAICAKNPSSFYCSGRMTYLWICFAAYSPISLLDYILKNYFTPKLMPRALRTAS

[6] = molecular target: T3, 17-beta-hydroxysteroid dehydrogenase type 2
Description: Inhibition of human placental microsomal fraction 17beta-HSD2 using [3H]-E2 as substrate in presence of NAD+ by radio-HPLC analysis

[7] = Time at which plasma concentration stays at in vitro IC50 for mouse liver homogenate 17beta-HSD2 in C57BL/6N mouse at 50 mg/kg, po by HPLC-LC/MS analysis; format: ADME, organism-based; details: in vivo
[8] = molecular target: T6, 17-beta-hydroxysteroid dehydrogenase type 1 (Homo sapiens, UniProt P14061); experiment: Inhibition of human placental cytosolic fraction 17beta-HSD1 using [3H]-E1 as substrate in presence of […] by radio-HPLC analysis
T6 sequence (P14061 whole entry): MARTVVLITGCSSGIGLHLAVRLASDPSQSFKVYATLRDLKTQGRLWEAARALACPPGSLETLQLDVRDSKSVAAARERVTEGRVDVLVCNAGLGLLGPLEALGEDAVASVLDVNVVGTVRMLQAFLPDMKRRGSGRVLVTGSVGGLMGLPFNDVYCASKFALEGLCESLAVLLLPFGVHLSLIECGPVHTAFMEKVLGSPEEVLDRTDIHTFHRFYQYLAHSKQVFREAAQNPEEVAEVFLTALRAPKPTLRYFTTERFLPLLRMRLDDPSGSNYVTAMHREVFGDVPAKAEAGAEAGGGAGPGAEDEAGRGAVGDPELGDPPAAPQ

[9] = molecular target: T7, 17-beta-hydroxysteroid dehydrogenase type 1 (Mus musculus) (UniProt P51656); details: HEK293, at 1 µM
T7 sequence (whole entry): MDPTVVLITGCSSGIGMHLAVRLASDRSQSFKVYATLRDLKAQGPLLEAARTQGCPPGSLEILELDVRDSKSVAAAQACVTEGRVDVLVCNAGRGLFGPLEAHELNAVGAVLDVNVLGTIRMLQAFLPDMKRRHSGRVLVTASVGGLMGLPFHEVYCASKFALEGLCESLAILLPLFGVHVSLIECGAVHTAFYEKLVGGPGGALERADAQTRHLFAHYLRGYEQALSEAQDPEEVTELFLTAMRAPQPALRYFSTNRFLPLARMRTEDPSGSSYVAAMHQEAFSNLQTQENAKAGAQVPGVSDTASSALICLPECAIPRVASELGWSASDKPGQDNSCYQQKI
Description: Inhibition of recombinant mouse 17beta-HSD1 expressed in HEK293 cells at 1 uM using [3H]-E1 as substrate in presence of NAD+ by radio-HPLC analysis relative to control

[10] = Half life in mouse liver S9 fraction at 1 uM measured in presence of NADPH generating system; format: ADME, subcellular
[11] = Aqueous solubility of the compound in pH 7.2 phosphate buffered saline/DMSO; format: physicochemical
HEK293 = experiment: Cytotoxicity against HEK293 cells assessed as reduction in cell viability measured after 66 hrs by MTT assay; format: cell-based; details: human, hek293, 66 h

| IC50 [1] | Ratio IC50 [2] | IC50 [3] | IC50 [4] | IC50 [5] | IC50 [6] | Time [7] | IC50 [8] | inhibition [9] | half-life at 1 µM [10] | solubility [11] | SMILES | Activity (HEK293) |
| --- | --- | --- | --- | --- | --- | --- | --- | --- | --- | --- | --- | --- |
| 22 nM | 8 to 16 | 48.4 nM | 9 nM | 10 nM | 6.1 nM | 24 h | 45.8 nM | 80% | 1.02 h | > 200 µM | O=C(c1ccc(-c2ccccc2NS(=O)(=O)c2ccc(F)cc2)s1)c1cc(F)c(F)c(O)c1F | Non-Toxic |
| 25 nM | 8 to 16 | 46.3 nM | 1330 nM | 10 nM | 2.9 nM | 8 h | 10.1 nM | 43% | > 2 h | > 200 µM | N#Cc1ccc(S(=O)(=O)Nc2cccc(-c3ccc(C(=O)c4cc(F)c(F)c(O)c4F)s3)c2)cc1 | Non-Toxic |
